From ChEMBL document CHEMBL1909046, “DrugMatrix in vitro pharmacology data”

Columns and labels:
[1] = DRUGMATRIX: Glutamate, NMDA, Phencyclidine radioligand binding (ligand: [3H] TCP); type: cell membranes, Rattus norvegicus, Wistar, Cerebral cortex, Membrane; details: Not Active = under 50% inhibition at 10 µM
[2] = target: T1, C-C chemokine receptor type 4 (Homo sapiens, UniProt P51679); type: cell membranes, Membrane; details: chem-1; further: in other assays of this panel Not Active means under 50% inhibition at 10 µM
T1 sequence (P51679 whole entry): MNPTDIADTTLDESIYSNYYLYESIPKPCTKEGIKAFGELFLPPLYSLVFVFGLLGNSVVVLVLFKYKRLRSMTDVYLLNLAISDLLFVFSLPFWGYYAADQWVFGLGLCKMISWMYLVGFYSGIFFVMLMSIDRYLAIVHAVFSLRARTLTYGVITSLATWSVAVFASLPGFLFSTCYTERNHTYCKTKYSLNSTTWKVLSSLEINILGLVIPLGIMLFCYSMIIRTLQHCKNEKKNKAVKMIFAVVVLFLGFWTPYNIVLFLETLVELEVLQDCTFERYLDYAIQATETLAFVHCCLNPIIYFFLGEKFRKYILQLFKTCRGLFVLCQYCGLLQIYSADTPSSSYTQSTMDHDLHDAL

[3] = target: T2, Amine oxidase [flavin-containing] A (Homo sapiens, UniProt P21397); assay: DRUGMATRIX: Monoamine Oxidase MAO-A enzyme inhibition (substrate: Kynuramine); parameters: species or system BTI-TN-5B1-4; details: bti-tn-5b1-4; Not Active = under 50% inhibition at 10 µM
T2 sequence (P21397 whole entry): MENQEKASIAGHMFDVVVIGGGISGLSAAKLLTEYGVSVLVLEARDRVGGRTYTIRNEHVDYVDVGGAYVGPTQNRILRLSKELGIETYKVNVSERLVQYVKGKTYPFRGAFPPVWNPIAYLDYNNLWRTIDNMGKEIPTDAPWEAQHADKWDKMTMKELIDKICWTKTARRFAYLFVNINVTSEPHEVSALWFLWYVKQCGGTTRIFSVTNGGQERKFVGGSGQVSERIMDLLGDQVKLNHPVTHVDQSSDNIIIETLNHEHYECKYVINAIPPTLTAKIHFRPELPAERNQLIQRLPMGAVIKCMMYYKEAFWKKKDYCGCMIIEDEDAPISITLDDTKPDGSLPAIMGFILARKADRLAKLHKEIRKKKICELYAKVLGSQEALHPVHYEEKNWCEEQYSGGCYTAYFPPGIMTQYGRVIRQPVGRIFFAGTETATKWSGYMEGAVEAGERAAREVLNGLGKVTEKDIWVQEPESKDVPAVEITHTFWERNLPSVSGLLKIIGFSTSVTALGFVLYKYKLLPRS

[4] = target: Histamine H2 receptor (Homo sapiens, UniProt P25021); type: cell membranes, CHO-K1, Membrane; details: cho-k1; further: in other assays of this panel Not Active means under 50% inhibition at 10 µM
[5] = target: Melanocortin receptor 5 (Homo sapiens, UniProt P33032); type: cell membranes, HEK293, Membrane; details: hek293; further: in other assays of this panel Not Active means under 50% inhibition at 10 µM
[6] = target: 5-hydroxytryptamine receptor 1B (Rattus norvegicus, UniProt P28564); type: cell membranes, Wistar, Cerebral cortex, Membrane; further: in other assays of this panel Not Active means under 50% inhibition at 10 µM
Chain of 5-hydroxytryptamine receptor 1B (P28564 whole entry): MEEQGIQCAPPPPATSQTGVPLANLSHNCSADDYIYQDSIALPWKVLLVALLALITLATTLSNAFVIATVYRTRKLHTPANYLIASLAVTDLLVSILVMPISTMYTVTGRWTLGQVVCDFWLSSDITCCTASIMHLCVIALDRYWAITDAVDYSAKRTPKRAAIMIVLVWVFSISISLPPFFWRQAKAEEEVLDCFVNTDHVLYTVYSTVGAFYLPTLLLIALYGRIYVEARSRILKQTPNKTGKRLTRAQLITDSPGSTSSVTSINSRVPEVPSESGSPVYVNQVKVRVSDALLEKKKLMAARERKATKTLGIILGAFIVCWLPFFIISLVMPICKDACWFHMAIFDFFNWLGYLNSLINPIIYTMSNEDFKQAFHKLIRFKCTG

Chain of Histamine H2 receptor (P25021 whole entry): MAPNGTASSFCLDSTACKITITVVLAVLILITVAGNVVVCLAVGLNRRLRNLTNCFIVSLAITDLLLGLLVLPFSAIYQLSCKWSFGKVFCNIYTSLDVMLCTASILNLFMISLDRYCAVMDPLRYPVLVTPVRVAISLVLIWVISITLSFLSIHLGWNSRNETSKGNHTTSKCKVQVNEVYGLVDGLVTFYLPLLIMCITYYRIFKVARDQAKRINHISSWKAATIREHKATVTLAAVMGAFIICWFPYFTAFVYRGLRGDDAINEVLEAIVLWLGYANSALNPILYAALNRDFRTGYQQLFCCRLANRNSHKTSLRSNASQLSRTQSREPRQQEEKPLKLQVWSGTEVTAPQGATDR
Chain of Melanocortin receptor 5 (P33032 whole entry): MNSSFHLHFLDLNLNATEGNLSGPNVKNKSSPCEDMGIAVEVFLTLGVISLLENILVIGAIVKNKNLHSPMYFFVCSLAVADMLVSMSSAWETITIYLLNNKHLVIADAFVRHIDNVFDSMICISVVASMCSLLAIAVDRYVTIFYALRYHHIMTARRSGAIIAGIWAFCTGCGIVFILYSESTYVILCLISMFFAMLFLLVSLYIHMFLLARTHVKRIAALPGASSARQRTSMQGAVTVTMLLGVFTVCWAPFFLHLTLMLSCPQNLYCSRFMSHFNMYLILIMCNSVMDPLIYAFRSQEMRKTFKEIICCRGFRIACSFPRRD

CC(=O)O[C@H]1C[C@@H]2CC[C@@H]3[C@H](CC[C@@]4(C)[C@H]3C[C@H]([N+]3(C)CCCCC3)[C@@H]4OC(C)=O)[C@@]2(C)C[C@@H]1N1CCCCC1.[Br-] [VECURONIUM BROMIDE]
Not Active: IC50 [1] | Ki [1] | IC50 [2] | IC50 [3] | IC50 [4] | IC50 [5] | IC50 [6]

COc1cc(C(=O)NS(=O)(=O)c2ccccc2C)ccc1Cc1cn(C)c2ccc(NC(=O)OC3CCCC3)cc12 [ZAFIRLUKAST]
Not Active: IC50 [1] | Ki [1] | IC50 [2] | IC50 [3] | IC50 [4] | IC50 [5] | IC50 [6]

Cc1cn([C@H]2C[C@H](N=[N+]=[N-])[C@@H](CO)O2)c(=O)[nH]c1=O [ZIDOVUDINE]
Not Active: IC50 [1] | Ki [1] | IC50 [2] | IC50 [3] | IC50 [4] | IC50 [5] | IC50 [6]

STANNOUS FLUORIDE
Not Active: IC50 [1] | Ki [1] | IC50 [2] | Ki [2] | IC50 [3] | Ki [3] | IC50 [4] | Ki [4] | IC50 [5] | Ki [5] | IC50 [6] | Ki [6]

THIMEROSAL
Not Active: IC50 [1] | Ki [1] | IC50 [2] | Ki [2] | IC50 [3] | Ki [3] | IC50 [4] | Ki [4] | IC50 [5] | Ki [5] | IC50 [6] | Ki [6]
